Data set [1] can be described thus: Modeling of Mn and Zn levels in vaginal fluid delivered from slow release Z2 formulation. More on the design: species or system women. Here is the method:
Six women each received 3 doses of formulation Z2 separated by 48 hours. Vaginal fluid swabs were collected at t=0, 2, 4, 8, 12, 18, 24, 30, 36, and 42 hours post dose and vaginal fluid concentrations of lactoferrin and mannitol were determined. Average concentrations for the combined 18 dose administrations were obtained based on calculation of Area Under Curve for the locally estimated scatterplot smoothing (Loess) profile of lactoferrin and mannitol concentrations assuming 6 mL volume of distribution.

On the set-up of data set [2]: species or system women. The conditions noted are these: female, human, in vivo. Here is the method:
Elevated levels of calprotectin in BV and in L iners-dominated vaginal microbiomes sequester manganese and zinc, preventing growth of L crispatus its maintenance of a healthy vaginal microbiome. […] Six women each received 3 doses of formulation Z2 separated by 48 hours. Vaginal fluid swabs were collected at t=0, 2, 4, 8, 12, 18, 24, 30, 36, and 42 hours post dose and vaginal fluid concentrations of lactoferrin and mannitol were determined. Average concentrations for the combined 18 dose administrations were obtained based on calculation of Area Under Curve for the locally estimated scatterplot smoothing (Loess) profile of lactoferrin and mannitol concentrations assuming 6 mL volume of distribution. The average concentration of lactoferrin was 33 mg/mL and the average concentrations of mannitol was 20 mg/mL. Average concentrations of both substances correspond to 0.1 fraction or 10% of the administered dose, 300 mg lactoferrin and 195 mg mannitol per Z2 tablet respectively. The 0.1 factor was used to estimate the expected average elemental Mn concentration based on the initial dose per tablet.

As for `[Mn+2]` [Mn, manganese], in data set [1] (50 μg dose of Mn), the “predicted Cmax, fold below the concentration of Mn used in MRS media” value is roughly 2 fold. The “predicted Cmax, fold above the amount of Mn that could be bound by calprotectin in BV” value in data set [1] (50 μg dose of Mn, 95% CI of median 70 M based on 1:1 Mn/CP) is roughly 2 fold.
As to `[Zn]` [Zn, zinc], the “predicted Cmax, fold below the concentration of Zn used in MRS media” value in data set [1] (250 μg dose of Zn) was roughly 5 fold. Also, the “predicted Cmax, fold above the amount of Zn that could be bound by calprotectin in BV” value in data set [1] (250 μg dose of Zn, 95% CI of median based on 2:1 Zn/CP) is roughly 4 fold.
With `OC[C@@H](O)[C@@H](O)[C@H](O)[C@H](O)CO` [mannitol, reference compound], in data set [2], the “average concentration as fraction of the administered dose” value came to 10%.

These data come from US20250127807A1, “TREATMENT OF VAGINAL DYSBIOTIC CONDITIONS WITH ASSOCIATED ELEVATED VAGINAL CALPROTECTIN” (priority 2022, published 2025).
